The test system of this assay is Peripheral blood mononuclear cells (PBMCs). Briefly: BrdU proliferation assay of PBMCs incubated with p16INK4a peptides. Particulars: first reacting patient; PBMCs from women with CIN2/3. The format is cell-based, human. As to the method:
Peripheral blood mononuclear cells (PBMCs) from 13 women with p16^INK4a-expressing high grade cervical dysplasia (CIN2/3) were incubated with p16^INK4a peptides (Table 1) to determine the proliferative capacity of the immune cells by applying a BrdU assay as a global measure for lymphoproliferative potential after challenge with the p16^INK4a peptides. The BrdU-assay is a colorimetric immunoassay applied for the quantification of cell proliferation based on the measurement of the thymidine analogue 5-bromo-2'-deoxyuridine incorporation during DNA synthesis. PBMCs in IMDM medium supplemented with 10% human serum were seeded in a 96-well-microtiter-plate (flat bottom) at a density of 150.000 cells/50µl/well. Cells in each 4 replicate wells were incubated in the presence of the seven p16INK4a peptides (Table 1), tetanus toxoid (20 ng/ml, Calbiochem, La Jolla, CA) and mitogen PHA-L (5 µg/ml, Roche, Mannheim, Germany) as positive controls and no antigen as negative control for 6 days at 37°C, 5% CO2. […] The enzyme reaction was stopped by adding 25 µl/well 1N H2SO4 and optical density (OD) was measured at 450 nm (reference wavelength 620 nm). […]

On to “GHRDVARYLRAAAGGTRGSNHARIDAAEGPSDIPD [p16INK4a_123-156]”, for which the “response (proliferation, BrdU assay)” value was “showed response”.

These data come from patent EP2573105B1, “p16INK4a derived peptides for prophylaxis and therapy of HPV-associated tumors and other p16INK4a expressing tumors” (Ruprecht-Karls-Universität Heidelberg, priority 2011, dated 2013).
